Assay results published in ChEMBL document CHEMBL4251634, “Synthesis and antimicrobial activity of pyrimidinyl 1,3,4-oxadiazoles, 1,3,4-thiadiazoles and 1,2,4-triazoles” (2018).
Active and inactive are the calls of the source. The calls are words filed in the database; no cut-off is given here.

Columns and labels:
Assay type in all cases: functional
Staphylococcus aureus [1] = test: Antibacterial activity against Staphylococcus aureus assessed as diameter of inhibition zone at 12.5 ug/well after 24 hrs by agar well diffusion method
Klebsiella pneumoniae [2] = test: Antibacterial activity against Klebsiella pneumoniae assessed as diameter of inhibition zone at 100 ug/well after 24 hrs by agar well diffusion method; conditions: read-out: DIZ
Aspergillus niger [3] = test: Antifungal activity against Aspergillus niger assessed as diameter of inhibition zone at 25 ug/well after 48 hrs by agar well diffusion method; conditions: for zone of inhibition at 25 µg/disc: read-out: DIZ
Bacillus subtilis [4] = test: Antibacterial activity against Bacillus subtilis assessed as diameter of inhibition zone at 50 ug/well after 24 hrs by agar well diffusion method; conditions: for zone of inhibition at 50 µg/disc: read-out: DIZ
Bacillus subtilis [5] = test: Antibacterial activity against Bacillus subtilis assessed as diameter of inhibition zone at 25 ug/well after 24 hrs by agar well diffusion method; conditions: for zone of inhibition at 25 µg/disc: read-out: DIZ
Pseudomonas aeruginosa [6] = test: Antibacterial activity against Pseudomonas aeruginosa assessed as diameter of inhibition zone at 50 ug/well after 24 hrs by agar well diffusion method; conditions: read-out: DIZ
Klebsiella pneumoniae [7] = test: Antibacterial activity against Klebsiella pneumoniae assessed as diameter of inhibition zone at 25 ug/well after 24 hrs by agar well diffusion method; conditions: for zone of inhibition at 25 µg/disc: read-out: DIZ
Penicillium chrysogenum [8] = test: Antifungal activity against Penicillium chrysogenum assessed as diameter of inhibition zone at 50 ug/well after 48 hrs by agar well diffusion method; conditions: for zone of inhibition at 50 µg/disc: read-out: DIZ
Pseudomonas aeruginosa [9] = test: Antibacterial activity against Pseudomonas aeruginosa assessed as diameter of inhibition zone at 25 ug/well after 24 hrs by agar well diffusion method; conditions: for zone of inhibition at 25 µg/disc: read-out: DIZ
Klebsiella pneumoniae [10] = test: Antibacterial activity against Klebsiella pneumoniae assessed as diameter of inhibition zone at 12.5 ug/well after 24 hrs by agar well diffusion method; conditions: for zone of inhibition at 12.5 µg/disc: read-out: DIZ
Aspergillus niger [11] = test: Antifungal activity against Aspergillus niger assessed as diameter of inhibition zone at 50 ug/well after 48 hrs by agar well diffusion method; conditions: for zone of inhibition at 50 µg/disc: read-out: DIZ
Penicillium chrysogenum [12] = test: Antifungal activity against Penicillium chrysogenum assessed as diameter of inhibition zone at 25 ug/well after 48 hrs by agar well diffusion method; conditions: for zone of inhibition at 25 µg/disc: read-out: DIZ
Bacillus subtilis [13] = test: Antibacterial activity against Bacillus subtilis assessed as diameter of inhibition zone at 12.5 ug/well after 24 hrs by agar well diffusion method; conditions: for zone of inhibition at 12.5 µg/disc: read-out: DIZ
Aspergillus niger [14] = test: Antifungal activity against Aspergillus niger assessed as diameter of inhibition zone at 100 ug/well after 48 hrs by agar well diffusion method; conditions: for zone of inhibition at 100 µg/disc: read-out: DIZ
Penicillium chrysogenum [15] = test: Antifungal activity against Penicillium chrysogenum assessed as diameter of inhibition zone at 100 ug/well after 48 hrs by agar well diffusion method; conditions: for zone of inhibition at 100 µg/disc: read-out: DIZ
Aspergillus niger [16] = test: Antifungal activity against Aspergillus niger assessed as diameter of inhibition zone at 12.5 ug/well after 48 hrs by agar well diffusion method; conditions: for zone of inhibition at 12.5 µg/disc: read-out: DIZ
Pseudomonas aeruginosa [17] = test: Antibacterial activity against Pseudomonas aeruginosa assessed as diameter of inhibition zone at 100 ug/well after 24 hrs by agar well diffusion method; conditions: read-out: DIZ
Pseudomonas aeruginosa [18] = test: Antibacterial activity against Pseudomonas aeruginosa assessed as diameter of inhibition zone at 12.5 ug/well after 24 hrs by agar well diffusion method; conditions: for zone of inhibition at 12.5 µg/disc: read-out: DIZ
Klebsiella pneumoniae [19] = test: Antibacterial activity against Klebsiella pneumoniae assessed as diameter of inhibition zone at 50 ug/well after 24 hrs by agar well diffusion method; conditions: for zone of inhibition at 50 µg/disc: read-out: DIZ
Staphylococcus aureus [20] = test: Antibacterial activity against Staphylococcus aureus assessed as diameter of inhibition zone at 100 ug/well after 24 hrs by agar well diffusion method; conditions: for zone of inhibition at 100 µg/disc: read-out: DIZ
Penicillium chrysogenum [21] = test: Antifungal activity against Penicillium chrysogenum assessed as diameter of inhibition zone at 12.5 ug/well after 48 hrs by agar well diffusion method; conditions: for zone of inhibition at 12.5 µg/disc: read-out: DIZ
Bacillus subtilis [22] = test: Antibacterial activity against Bacillus subtilis assessed as diameter of inhibition zone at 100 ug/well after 24 hrs by agar well diffusion method; conditions: for zone of inhibition at 100 µg/disc: read-out: DIZ
Staphylococcus aureus [23] = test: Antibacterial activity against Staphylococcus aureus assessed as diameter of inhibition zone at 50 ug/well after 24 hrs by agar well diffusion method; conditions: for zone of inhibition at 50 µg/disc: read-out: DIZ
Staphylococcus aureus [24] = test: Antibacterial activity against Staphylococcus aureus assessed as diameter of inhibition zone at 25 ug/well after 24 hrs by agar well diffusion method; conditions: for zone of inhibition at 25 µg/disc: read-out: DIZ

SMILES	diameter of the inhibition zone (DIZ) (Staphylococcus aureus [1])	zone of inhibition at 100 µg/disc (Klebsiella pneumoniae [2]) [mm]	zone of inhibition at 25 µg/disc (Aspergillus niger [3]) [mm]	zone of inhibition at 50 µg/disc (Bacillus subtilis [4]) [mm]	zone of inhibition at 50 µg/disc (Pseudomonas aeruginosa [6]) [mm]	zone of inhibition at 25 µg/disc (Klebsiella pneumoniae [7]) [mm]	zone of inhibition at 50 µg/disc (Penicillium chrysogenum [8]) [mm]	zone of inhibition at 25 µg/disc (Pseudomonas aeruginosa [9]) [mm]	zone of inhibition at 12.5 µg/disc (Klebsiella pneumoniae [10]) [mm]	zone of inhibition at 50 µg/disc (Aspergillus niger [11]) [mm]	zone of inhibition at 25 µg/disc (Penicillium chrysogenum [12]) [mm]	zone of inhibition at 100 µg/disc (Aspergillus niger [14]) [mm]	zone of inhibition at 100 µg/disc (Penicillium chrysogenum [15]) [mm]	zone of inhibition at 12.5 µg/disc (Aspergillus niger [16]) [mm]	zone of inhibition at 100 µg/disc (Pseudomonas aeruginosa [17]) [mm]	zone of inhibition at 12.5 µg/disc (Pseudomonas aeruginosa [18]) [mm]	zone of inhibition at 50 µg/disc (Klebsiella pneumoniae [19]) [mm]	zone of inhibition at 12.5 µg/disc (Penicillium chrysogenum [21]) [mm]	zone of inhibition at 100 µg/disc (Bacillus subtilis [22]) [mm]	diameter of the inhibition zone (DIZ) (Staphylococcus aureus [23])	other results
Cc1cc(SCc2nnc(-c3ccc(Cl)cc3)o2)nc(SCc2nnc(-c3ccc(Cl)cc3)o2)n1	inactive	16	20	7	14	11	15	12	10	22	13	25	17	18	17	10	13	11	9	inactive	diameter of the inhibition zone (DIZ) (Bacillus subtilis [5]): inactive; diameter of the inhibition zone (DIZ) (Bacillus subtilis [13]): inactive; diameter of the inhibition zone (DIZ) (Staphylococcus aureus [20]): inactive; diameter of the inhibition zone (DIZ) (Staphylococcus aureus [24]): inactive
Cc1cc(SCc2nnc(-c3ccc([N+](=O)[O-])cc3)o2)nc(SCc2nnc(-c3ccc([N+](=O)[O-])cc3)o2)n1	inactive	21	22	13	16	17	16	14	15	24	14	27	19	20	21	11	19	12	15	–	zone of inhibition at 25 µg/disc (Bacillus subtilis [5]): 11 mm; zone of inhibition at 12.5 µg/disc (Bacillus subtilis [13]): 9 mm; zone of inhibition at 100 µg/disc (Staphylococcus aureus [20]): 10 mm; zone of inhibition at 50 µg/disc (Staphylococcus aureus [23]): 8 mm; zone of inhibition at 25 µg/disc (Staphylococcus aureus [24]): 7 mm
Cc1ccc(-c2nnc(CSc3cc(C)nc(SCc4nnc(-c5ccc(C)cc5)s4)n3)s2)cc1	inactive	20	11	11	15	16	–	12	14	13	–	15	–	9	19	10	18	–	13	inactive	zone of inhibition at 25 µg/disc (Bacillus subtilis [5]): 10 mm; diameter of the inhibition zone (DIZ) (Penicillium chrysogenum [8]): inactive; diameter of the inhibition zone (DIZ) (Penicillium chrysogenum [12]): inactive; zone of inhibition at 12.5 µg/disc (Bacillus subtilis [13]): 8 mm; diameter of the inhibition zone (DIZ) (Penicillium chrysogenum [15]): inactive; zone of inhibition at 100 µg/disc (Staphylococcus aureus [20]): 8 mm; diameter of the inhibition zone (DIZ) (Penicillium chrysogenum [21]): inactive; diameter of the inhibition zone (DIZ) (Staphylococcus aureus [24]): inactive
COc1ccc(-c2nnc(CSc3cc(C)nc(SCc4nnc(-c5ccc(OC)cc5)s4)n3)s2)cc1	inactive	13	–	–	8	–	–	–	–	–	–	–	–	–	10	–	–	–	–	inactive	diameter of the inhibition zone (DIZ) (Aspergillus niger [3]): inactive; diameter of the inhibition zone (DIZ) (Bacillus subtilis [4]): inactive; diameter of the inhibition zone (DIZ) (Bacillus subtilis [5]): inactive; diameter of the inhibition zone (DIZ) (Klebsiella pneumoniae [7]): inactive; diameter of the inhibition zone (DIZ) (Penicillium chrysogenum [8]): inactive; diameter of the inhibition zone (DIZ) (Pseudomonas aeruginosa [9]): inactive; diameter of the inhibition zone (DIZ) (Klebsiella pneumoniae [10]): inactive; diameter of the inhibition zone (DIZ) (Aspergillus niger [11]): inactive; diameter of the inhibition zone (DIZ) (Penicillium chrysogenum [12]): inactive; diameter of the inhibition zone (DIZ) (Bacillus subtilis [13]): inactive; diameter of the inhibition zone (DIZ) (Aspergillus niger [14]): inactive; diameter of the inhibition zone (DIZ) (Penicillium chrysogenum [15]): inactive; diameter of the inhibition zone (DIZ) (Aspergillus niger [16]): inactive; diameter of the inhibition zone (DIZ) (Pseudomonas aeruginosa [18]): inactive; diameter of the inhibition zone (DIZ) (Klebsiella pneumoniae [19]): inactive; diameter of the inhibition zone (DIZ) (Staphylococcus aureus [20]): inactive; diameter of the inhibition zone (DIZ) (Penicillium chrysogenum [21]): inactive; diameter of the inhibition zone (DIZ) (Bacillus subtilis [22]): inactive; diameter of the inhibition zone (DIZ) (Staphylococcus aureus [24]): inactive
Cc1cc(SCc2nnc(-c3ccc(Br)cc3)n2N)nc(SCc2nnc(-c3ccc(Br)cc3)n2N)n1	–	28	29	18	22	23	21	20	21	31	19	34	24	27	25	16	25	17	20	–	zone of inhibition at 12.5 µg/disc (Staphylococcus aureus [1]; read-out: DIZ): 9 mm; zone of inhibition at 25 µg/disc (Bacillus subtilis [5]): 16 mm; zone of inhibition at 12.5 µg/disc (Bacillus subtilis [13]): 15 mm; zone of inhibition at 100 µg/disc (Staphylococcus aureus [20]): 14 mm; zone of inhibition at 50 µg/disc (Staphylococcus aureus [23]): 12 mm; zone of inhibition at 25 µg/disc (Staphylococcus aureus [24]): 10 mm
Cc1cc(SCc2nnc(-c3ccccc3)o2)nc(SCc2nnc(-c3ccccc3)o2)n1	inactive	12	16	–	11	7	11	9	–	18	10	21	13	14	14	7	9	8	7	inactive	diameter of the inhibition zone (DIZ) (Bacillus subtilis [4]): inactive; diameter of the inhibition zone (DIZ) (Bacillus subtilis [5]): inactive; diameter of the inhibition zone (DIZ) (Klebsiella pneumoniae [10]): inactive; diameter of the inhibition zone (DIZ) (Bacillus subtilis [13]): inactive; diameter of the inhibition zone (DIZ) (Staphylococcus aureus [20]): inactive; diameter of the inhibition zone (DIZ) (Staphylococcus aureus [24]): inactive
